Assay: Inhibition of MCP1-induced cell migration in U937 cells expressing CCR2 by chemotaxis assay

Row | IC50 [µM] | Structure (SMILES)
1 | 3 | Nc1cccc(CN2CCCC(Nc3ccc4[nH]ncc4c3)C2)c1 (stereo unspecified) [N-[1-(3-aminobenzyl)-3-piperidyl]-N-(1H-5-indazolyl)amine]
2 | 10 | c1c[nH]c(CN2CCCC(Nc3ccc4[nH]ncc4c3)C2)c1 (stereo unspecified) [N-[1-(1H-2-pyrrolylmethyl)-3-piperidyl]-N-(1H-5-indazolyl)amine]
3 | 1 | Nc1ccccc1CN1CCCC(Nc2ccc3[nH]ncc3c2)C1 (stereo unspecified) [N-[1-(2-aminobenzyl)-3-piperidyl]-N-(1H-5-indazolyl)amine]
4 | 1 | Clc1ccc(CN2CCC(Nc3ccc4[nH]ncc4c3)C2)cc1 (stereo unspecified) [N-[1-(4-chlorobenzyl)-3-pyrrolidyl]-N-(1H-5-indazolyl)amine]
5 | > 100 | O=C(NCc1c(F)cccc1F)Nc1ccc2[nH]ncc2c1 [N-(2,6-difluorobenzyl)-N0-(1H-5-indazolyl)urea]
6 | 19 | O=[N+]([O-])c1cccc(CN2CCCC(Nc3ccc4[nH]ncc4c3)C2)c1 (stereo unspecified) [N-[1-(3-nitrobenzyl)-3-piperidyl]-N-(1H-5-indazolyl)amine]
7 | 8 | Clc1cccc(CN2CCCC(Nc3ccc4[nH]ncc4c3)C2)c1 (stereo unspecified) [N-[1-(3-chlorobenzyl)-3-piperidyl]-N-(1H-5-indazolyl)amine]
8 | 8 | Clc1ccccc1CN1CCCC(Nc2ccc3[nH]ncc3c2)C1 (stereo unspecified) [N-[1-(2-chlorobenzyl)-3-piperidyl]-N-(1H-5-indazolyl)amine]
9 | 5 | Clc1cccc(CN2CCC(Nc3ccc4[nH]ncc4c3)C2)c1 (stereo unspecified) [N-[1-(3-chlorobenzyl)-3-pyrrolidyl]-N-(1H-5-indazolyl)amine]
10 | 7 | Clc1ccccc1CN1CCC(Nc2ccc3[nH]ncc3c2)C1 (stereo unspecified) [N-[1-(2-chlorobenzyl)-3-pyrrolidyl]-N-(1H-5-indazolyl)amine]
11 | 20 | c1cncc(CN2CCCC(Nc3ccc4[nH]ncc4c3)C2)c1 (stereo unspecified) [N-[1-(3-pyridylmethyl)-3-piperidyl]-N-(1H-5-indazolyl)amine]

Second part, the compound before the results:

Row | Structure (SMILES) | IC50 [µM]
12 | Fc1ccc(CN2CCCC(Nc3ccc4[nH]ncc4c3)C2)cc1F (stereo unspecified) [N-(1-(3,4-difluorobenzyl)piperidin-3-yl)-1H-indazol-5-amine] | 1
13 | O=C(NCc1ccc(Cl)cc1Cl)Nc1ccc2[nH]ncc2c1 [N-(2,4-dichlorobenzyl)-N0-(1H-5-indazolyl)urea] | > 100
14 | Nc1ccc(CN2CCCC(Nc3ccc4[nH]ncc4c3)C2)cc1 (stereo unspecified) [N-(1-(4-aminobenzyl)piperidin-3-yl)-1H-indazol-5-amine] | 2
15 | COc1ccc(CN2CCCC(Nc3ccc4[nH]ncc4c3)C2)cc1 (stereo unspecified) [N-(1-(4-methoxybenzyl)piperidin-3-yl)-1H-indazol-5-amine] | 1
16 | Cc1ccc(CN2CCCC(Nc3ccc4[nH]ncc4c3)C2)cc1 (stereo unspecified) [N-(1-(4-methylbenzyl)piperidin-3-yl)-1H-indazol-5-amine] | 1
17 | c1csc(CN2CCCC(Nc3ccc4[nH]ncc4c3)C2)c1 (stereo unspecified) [N-(1-(thiophen-2-ylmethyl)piperidin-3-yl)-1H-indazol-5-amine] | 6
18 | O=C(Nc1ccc2[nH]ncc2c1)C1CCCN(Cc2ccccc2)C1 (stereo unspecified) [1-benzyl-N-(1H-indazol-5-yl)piperidine-3-carboxamide] | 1
19 | c1ccc(CN2CCCC(Nc3ccc4[nH]ncc4c3)C2)cc1 (stereo unspecified) [N-(1-benzylpiperidin-3-yl)-1H-indazol-5-amine] | 2
20 | c1ccc(CN2CCCC(Oc3ccc4[nH]ncc4c3)C2)cc1 (stereo unspecified) [1-benzyl-3-piperidyl-(1H-5-indazolyl)ether] | 1
21 | O=C(NCc1ccccc1)Nc1ccc2[nH]ncc2c1 [1-benzyl-3-(1H-indazol-5-yl)urea] | > 100
22 | Fc1ccc(CN2CCCC(Nc3ccc4[nH]ncc4c3)C2)cc1 (stereo unspecified) [N-(1-(4-fluorobenzyl)piperidin-3-yl)-1H-indazol-5-amine] | 4
23 | c1ccc(CN2CCC(Nc3ccc4[nH]ncc4c3)C2)cc1 (stereo unspecified) [N-(1-benzylpyrrolidin-3-yl)-1H-indazol-5-amine] | 10
24 | Clc1ccc(CN2CCCC(Nc3ccc4[nH]ncc4c3)C2)cc1 (stereo unspecified) [N-(1-(4-chlorobenzyl)piperidin-3-yl)-1H-indazol-5-amine] | 1
25 | c1coc(CN2CCCC(Nc3ccc4[nH]ncc4c3)C2)c1 (stereo unspecified) [N-(1-(furan-2-ylmethyl)piperidin-3-yl)-1H-indazol-5-amine] | 5
26 | O=[N+]([O-])c1ccc(CN2CCCC(Nc3ccc4[nH]ncc4c3)C2)cc1 (stereo unspecified) [N-(1-(4-nitrobenzyl)piperidin-3-yl)-1H-indazol-5-amine] | 19
27 | COc1cc(CN2CCCC(Nc3ccc4[nH]ncc4c3)C2)cc(OC)c1 (stereo unspecified) [N-(1-(3,5-dimethoxybenzyl)piperidin-3-yl)-1H-indazol-5-amine] | > 30
28 | c1cc(CN2CCCC(Nc3ccc4[nH]ncc4c3)C2)ccn1 (stereo unspecified) [N-(1-(pyridin-4-ylmethyl)piperidin-3-yl)-1H-indazol-5-amine] | > 30
29 | c1ccc(CN2CCC(Nc3ccc4[nH]ncc4c3)CC2)cc1 [N-(1-benzylpiperidin-4-yl)-1H-indazol-5-amine] | 30
30 | c1cc(CN2CCCC(Nc3ccc4[nH]ncc4c3)C2)cs1 (stereo unspecified) [N-(1-(thiophen-3-ylmethyl)piperidin-3-yl)-1H-indazol-5-amine] | 1
31 | c1ccc(CN2CCC(Oc3ccc4[nH]ncc4c3)CC2)cc1 [1-benzyl-4-piperidyl-(1H-5-indazolyl)ether] | 6
